Laboratory results as given in PubChem BioAssay AID1745844 (Carcinogenic Potency Database (CPDB), 2022).
Activity calls are given as the source filed them. No rule for the calls is given here.

Test system: rodent lifetime carcinogenesis bioassay, tumor incidence TD50
Experiment: carcinogenic potency in animals, long-term in vivo studies, CPDB compilation (AID 1745844)

CCCN(CCC)S(=O)(=O)c1ccc(C(=O)O)cc1
TD50 (mouse, strain B6C3F1, females, by gavage, site: any site (literature study), lesion: several types, types named in the paper, dosed 103 weeks, study length 104 weeks): 498 mg/kg/day
TD50 (mouse, strain B6C3F1, females, by gavage, site: liver, lesion: hepatocellular adenoma + hepatocellular carcinoma + neoplastic nodule, dosed 103 weeks, study length 104 weeks): 540 mg/kg/day
TD50 (mouse, strain B6C3F1, females, by gavage, site: liver, lesion: hepatocellular adenoma + hepatocellular carcinoma, dosed 103 weeks, study length 104 weeks): 540 mg/kg/day
TD50 (mouse, strain B6C3F1, females, by gavage, site: liver, lesion: hepatocellular adenoma, dosed 103 weeks, study length 104 weeks): 561 mg/kg/day
TD50 (mouse, strain B6C3F1, females, by gavage, site: lung, lesion: alveolar/bronchiolar adenoma + alveolar/bronchiolar carcinoma, dosed 103 weeks, study length 104 weeks): 1980 mg/kg/day
TD50 (mouse, strain B6C3F1, males, by gavage, site: any site (literature study), lesion: several types, types named in the paper, dosed 103 weeks, study length 104 weeks): 276 mg/kg/day
TD50 (mouse, strain B6C3F1, males, by gavage, site: liver, lesion: hepatocellular adenoma + hepatocellular carcinoma + neoplastic nodule, dosed 103 weeks, study length 104 weeks): 731 mg/kg/day
TD50 (mouse, strain B6C3F1, males, by gavage, site: lung, lesion: alveolar/bronchiolar adenoma + alveolar/bronchiolar carcinoma, dosed 103 weeks, study length 104 weeks): 2320 mg/kg/day
TD50 (mouse, strain B6C3F1, males, by gavage, site: subcutaneous tissue, lesion: fibroma, dosed 103 weeks, study length 104 weeks): 2130 mg/kg/day (inactive)
TD50 (rat, strain Fischer 344, females, by gavage, site: any site (literature study), lesion: several types, types named in the paper, dosed 103 weeks, study length 104 weeks): 1540 mg/kg/day (inactive)
TD50 (rat, strain Fischer 344, females, by gavage, site: liver, lesion: hepatocellular adenoma + hepatocellular carcinoma + neoplastic nodule, dosed 103 weeks, study length 104 weeks): 1790 mg/kg/day
TD50 (rat, strain Fischer 344, males, by gavage, site: any site (literature study), lesion: several types, types named in the paper, dosed 103 weeks, study length 104 weeks): 296 mg/kg/day
TD50 (rat, strain Fischer 344, males, by gavage, site: testis, lesion: interstitial-cell adenoma, bilateral + interstitial-cell adenoma, dosed 103 weeks, study length 104 weeks): 212 mg/kg/day (inactive)

CC(Cl)(Cl)Cl
TD50 (mouse, strain B6C3F1, females, by gavage, site: lung, lesion: alveolar/bronchiolar adenoma + alveolar/bronchiolar carcinoma, dosed 78 weeks, study length 90 weeks): 260000 mg/kg/day
carcinogen call (mouse, strain B6C3F1, females, inhaled, site: liver, lesion: hepatocellular adenoma, dosed 104 weeks, study length 104 weeks): negative (inactive)
carcinogen call (mouse, strain B6C3F1, females, inhaled, site: liver, lesion: hepatocellular carcinoma, dosed 104 weeks, study length 104 weeks): negative (inactive)
carcinogen call (mouse, strain B6C3F1, females, inhaled, site: liver, lesion: several types, types named in the paper, dosed 104 weeks, study length 104 weeks): negative (inactive)
TD50 (mouse, strain B6C3F1, males, by gavage, site: any site (literature study), lesion: several types, types named in the paper, dosed 78 weeks, study length 90 weeks): 30500 mg/kg/day
TD50 (mouse, strain B6C3F1, males, by gavage, site: liver, lesion: hepatocellular adenoma + hepatocellular carcinoma + neoplastic nodule, dosed 78 weeks, study length 90 weeks): 39700 mg/kg/day
TD50 (mouse, strain B6C3F1, males, by gavage, site: lung, lesion: alveolar/bronchiolar adenoma + alveolar/bronchiolar carcinoma, dosed 78 weeks, study length 90 weeks): 5.08e+06 mg/kg/day
carcinogen call (mouse, strain B6C3F1, males, inhaled, site: liver, lesion: hepatocellular adenoma, dosed 104 weeks, study length 104 weeks): negative (inactive)
TD50 (mouse, strain B6C3F1, males, inhaled, site: liver, lesion: hepatocellular carcinoma, dosed 104 weeks, study length 104 weeks): 66300 mg/kg/day (inactive)
carcinogen call (mouse, strain B6C3F1, males, inhaled, site: liver, lesion: several types, types named in the paper, dosed 104 weeks, study length 104 weeks): negative (inactive)
carcinogen call (rat, strain Fischer 344, females, inhaled, site: liver, lesion: hepatocellular carcinoma, dosed 104 weeks, study length 104 weeks): negative (inactive)
carcinogen call (rat, strain Fischer 344, females, inhaled, site: liver, lesion: neoplastic nodule, dosed 104 weeks, study length 104 weeks): negative (inactive)
TD50 (rat, strain Fischer 344, males, inhaled, site: liver, lesion: hepatocellular carcinoma, dosed 104 weeks, study length 104 weeks): 2070 mg/kg/day (inactive)
TD50 (rat, strain Fischer 344, males, inhaled, site: liver, lesion: neoplastic nodule, dosed 104 weeks, study length 104 weeks): 5120 mg/kg/day (inactive)
TD50 (rat, strain Osborne-Mendel, females, by gavage, site: any site (literature study), lesion: several types, types named in the paper, dosed 78 weeks, study length 112 weeks): 226 mg/kg/day
TD50 (rat, strain Osborne-Mendel, males, by gavage, site: any site (literature study), lesion: several types, types named in the paper, dosed 78 weeks, study length 106 weeks): 950 mg/kg/day

Nc1ccc(Cc2ccc(N)c(Cl)c2)cc1Cl
TD50 (mouse, strain CD-1 HaM/ICR, females, in feed, site: any site (literature study), lesion: several types, types named in the paper, dosed 77 weeks, study length 90 weeks): 52.8 mg/kg/day
TD50 (mouse, strain CD-1 HaM/ICR, females, in feed, site: liver, lesion: hepatoma, dosed 77 weeks, study length 90 weeks): 66.6 mg/kg/day
TD50 (mouse, strain CD-1 HaM/ICR, females, in feed, site: liver, lesion: several types, types named in the paper, dosed 77 weeks, study length 90 weeks): 66.6 mg/kg/day
TD50 (mouse, strain CD-1 HaM/ICR, females, in feed, site: lung, lesion: several types, types named in the paper, dosed 77 weeks, study length 90 weeks): 556 mg/kg/day (inactive)
TD50 (mouse, strain CD-1 HaM/ICR, males, in feed, site: any site (literature study), lesion: several types, types named in the paper, dosed 77 weeks, study length 94 weeks): 97.9 mg/kg/day
TD50 (mouse, strain CD-1 HaM/ICR, males, in feed, site: liver, lesion: several types, types named in the paper, dosed 77 weeks, study length 94 weeks): 471 mg/kg/day
TD50 (mouse, strain CD-1 HaM/ICR, males, in feed, site: lung, lesion: several types, types named in the paper, dosed 77 weeks, study length 94 weeks): 342 mg/kg/day (inactive)
TD50 (rat, strain Charles River CD (Sprague-Dawley), males, in feed, site: any site (literature study), lesion: several types, types named in the paper, dosed 77 weeks, study length 98 weeks): 33.4 mg/kg/day
TD50 (rat, strain Charles River CD (Sprague-Dawley), males, in feed, site: liver, lesion: several types, types named in the paper, dosed 77 weeks, study length 98 weeks): 70.1 mg/kg/day

OC[C@@H](O)[C@H]1O[C@@H]2O[C@H](C(Cl)(Cl)Cl)O[C@@H]2[C@H]1O
TD50 (mouse, strain B6AKF1, females, oral dosing, site: any site (literature study), lesion: several types, types named in the paper, dosed 76 weeks, study length 76 weeks): 17.3 mg/kg/day (inactive)
carcinogen call (mouse, strain B6AKF1, females, oral dosing, site: liver, lesion: hepatoma, dosed 76 weeks, study length 76 weeks): negative (inactive)
TD50 (mouse, strain B6AKF1, females, oral dosing, site: lung, lesion: adenoma, dosed 76 weeks, study length 76 weeks): 19.5 mg/kg/day (inactive)
carcinogen call (mouse, strain B6AKF1, males, oral dosing, site: any site (literature study), lesion: several types, types named in the paper, dosed 76 weeks, study length 76 weeks): negative (inactive)
carcinogen call (mouse, strain B6AKF1, males, oral dosing, site: liver, lesion: hepatoma, dosed 76 weeks, study length 76 weeks): negative (inactive)
carcinogen call (mouse, strain B6AKF1, males, oral dosing, site: lung, lesion: adenoma, dosed 76 weeks, study length 76 weeks): negative (inactive)
carcinogen call (mouse, strain B6C3F1, females, oral dosing, site: any site (literature study), lesion: one or several types, types not named, dosed 76 weeks, study length 76 weeks): negative (inactive)
carcinogen call (mouse, strain B6C3F1, females, oral dosing, site: liver, lesion: hepatoma, dosed 76 weeks, study length 76 weeks): negative (inactive)
carcinogen call (mouse, strain B6C3F1, females, oral dosing, site: lung, lesion: several types, types named in the paper, dosed 76 weeks, study length 76 weeks): negative (inactive)
TD50 (mouse, strain B6C3F1, males, oral dosing, site: any site (literature study), lesion: several types, types named in the paper, dosed 76 weeks, study length 76 weeks): 4.07 mg/kg/day (inactive)
TD50 (mouse, strain B6C3F1, males, oral dosing, site: liver, lesion: hepatoma, dosed 76 weeks, study length 76 weeks): 7.27 mg/kg/day (inactive)
TD50 (mouse, strain B6C3F1, males, oral dosing, site: lung, lesion: adenoma, dosed 76 weeks, study length 76 weeks): 11.2 mg/kg/day (inactive)

Cc1cccc(OCC(O)CNC(C)(C)C)c1C (centres undefined)
carcinogen call (mouse, strain B6C3F1, females, in feed, site: any site (literature study), lesion: several types, types named in the paper, dosed 82 weeks, study length 92 weeks): negative (inactive)
carcinogen call (mouse, strain B6C3F1, females, in feed, site: liver, lesion: several types, types named in the paper, dosed 82 weeks, study length 92 weeks): negative (inactive)
carcinogen call (mouse, strain B6C3F1, females, in feed, site: lung, lesion: several types, types named in the paper, dosed 82 weeks, study length 92 weeks): negative (inactive)
TD50 (mouse, strain B6C3F1, males, in feed, site: any site (literature study), lesion: several types, types named in the paper, dosed 82 weeks, study length 92 weeks): 618 mg/kg/day (inactive)
carcinogen call (mouse, strain B6C3F1, males, in feed, site: liver, lesion: several types, types named in the paper, dosed 82 weeks, study length 92 weeks): negative (inactive)
TD50 (mouse, strain B6C3F1, males, in feed, site: lung, lesion: several types, types named in the paper, dosed 82 weeks, study length 92 weeks): 1730 mg/kg/day (inactive)

CCC(CC)[N+](=O)[O-]
TD50 (rat, strain Fischer 344, males, by gavage, site: liver, lesion: hepatocellular carcinoma, dosed 50 weeks, study length 83 weeks): 3.05 mg/kg/day
TD50 (rat, strain Fischer 344, males, by gavage, site: liver, lesion: several types, types named in the paper, dosed 50 weeks, study length 83 weeks): 2.37 mg/kg/day

O=c1cc[nH]c(=S)[nH]1
TD50 (mouse, strain C3H (MTV+), females, in feed, site: liver, lesion: hepatoma, dosed 73 weeks, study length 73 weeks): 63.3 mg/kg/day
TD50 (mouse, strain C3H (MTV+), males, in feed, site: liver, lesion: hepatoma, dosed 73 weeks, study length 73 weeks): 48.6 mg/kg/day
carcinogen call (mouse, strain TM, females, in feed, site: liver, lesion: hepatoma, dosed 73 weeks, study length 73 weeks): negative (inactive)
carcinogen call (mouse, strain TM, males, in feed, site: liver, lesion: hepatoma, dosed 73 weeks, study length 73 weeks): negative (inactive)
TD50 (rat, strain Fischer 344, females, in feed, site: thyroid gland, lesion: malignant tumor, dosed 103 weeks, study length 103 weeks): 22.9 mg/kg/day
TD50 (rat, strain Fischer 344, males, in feed, site: thyroid gland, lesion: malignant tumor, dosed 103 weeks, study length 103 weeks): 8.05 mg/kg/day

NC(=O)c1ccncc1
TD50 (mouse, strain Swiss albino, females, in drinking water, site: liver, lesion: hepatoma, dosed 121 weeks, study length 121 weeks): 21300 mg/kg/day (inactive)
carcinogen call (mouse, strain Swiss albino, females, in drinking water, site: lung, lesion: several types, types named in the paper, dosed 121 weeks, study length 121 weeks): negative (inactive)
carcinogen call (mouse, strain Swiss albino, males, in drinking water, site: lung, lesion: several types, types named in the paper, dosed 117 weeks, study length 117 weeks): negative (inactive)

CCCCC(CC)CO (centres undefined)
TD50 (mouse, strain B6C3F1, females, by gavage, site: liver, lesion: hepatocellular carcinoma, dosed 80 weeks, study length 80 weeks): 1680 mg/kg/day
TD50 (mouse, strain B6C3F1, males, by gavage, site: liver, lesion: several types, types named in the paper, dosed 80 weeks, study length 80 weeks): 1710 mg/kg/day (inactive)
carcinogen call (rat, strain Fischer 344, females, by gavage, site: liver, lesion: hepatocellular carcinoma, dosed 104 weeks, study length 104 weeks): negative (inactive)
carcinogen call (rat, strain Fischer 344, males, by gavage, site: liver, lesion: several types, types named in the paper, dosed 104 weeks, study length 104 weeks): negative (inactive)

O.O=S(=O)(O)O.[Cd]
carcinogen call (mouse, strain Swiss, males, by gavage, site: liver, lesion: several types, types named in the paper, dosed 78 weeks, study length 78 weeks): negative (inactive)
TD50 (mouse, strain Swiss, males, by gavage, site: lung, lesion: several types, types named in the paper, dosed 78 weeks, study length 78 weeks): 1.78 mg/kg/day (inactive)
TD50 (rat, strain C.B. hooded, males, by gavage, site: liver, lesion: liver-cell adenoma, dosed 104 weeks, study length 114 weeks): 1.17 mg/kg/day (inactive)
